{
  "source": "patent US20060206946A1",
  "about": "“Method of disrupting heme transport in nematodes and of modelling and evaluating eukaryotic heme transport” (priority 2005, published 2006)",
  "assay_in_all_cases": "Growth of heme resistant mutant in CeHR medium",
  "assay_type_in_all_cases": "in vivo, Caenorhabditis elegans",
  "key": {"C. elegans mutant IH828": {"test_system": "C. elegans mutant IH828", "method": "(§1) To further increase the stringency of our genetic screen we split the contents from each 800 μM hemin selection flasks into two flasks containing either 800 μM or 1000 μM hemin. This allowed us to use another tier of positive selection to identify mutants with greater resistance to heme toxicity. Mutants from each flask were isolated and treated as a separate entity by giving an identification number based on the Genetic Nomenclature Guidelines used for C. elegans (http://biosci.umn.edu/CGC/Nomenclature/nomenguid.htm). To eliminate EMS-induced spurious mutations that could result in false positive, the mutants were outcrossed to wild-type N2 males. After five outcrosses, which replaces ˜97% of the mutant genome, mutants that bred true were selected for further analysis. Using this procedure, we isolated 13 individual mutants that were resistant to heme toxicity. These mutants were further characterized by analyzing Mendelian segregation ratios, X-linkage, phenotype penetrance, generation times, brood size, and their ability to grow under low hemin. […] This observation was surprising because we anticipated that high heme-resistant mutants will grow poorly under low heme. Based on the mutant's growth profile at low and high heme levels, we broadly categorized them into three phenotypic classes: class A, class B and class C (FIG. 13). These “phenoclusters” have the following growth phenotype: (a) three mutants IH728, IH938, IH731 show with robust growth under low and high (≧800 μM heme (FIG. 13B), (b) one mutant IH828 show exceptional growth under low heme, moderate growth at ≦800 μM heme, and no growth at 1000 μM hemin (FIG. 13C), and (c) six mutants IH921, IH11058, IH1068n, IH1068d, IH1048, and IH718 that show moderate growth under high heme (≦800 μM), but normal growth under low heme (FIG. 13D). By classifying these mutants into phenoclusters, we can focus our efforts on the phenotypic datasets to map the molecular networks and pathways involved in heme dependent processes. For instance, mutants in a cluster may have mutations within the same gene or in multiple genes but within the same pathway.\n(§2) Worm Culture and Growth Assays. Free-living worms were cultured in CeHR axenic liquid medium (Dr. Eric Clegg, Personal Communication). […] CeHR medium was modified (henceforth called mCeHR) to eliminate all sources of exogenously added heme; basal growth medium comprised 20 μM hemin chloride (Frontier Scientific, Logan, Utah) and 150 μM of ferrous ammonium sulfate (Sigma Chemicals). Worm strains were grown in mCeHR medium under aerobic conditions in tissue culture flasks at 20° C. ˜3.7×10^6 worms were routinely obtained after 3.5 to 4 days in a T75 flask with 30 ml basal medium from an initial inoculum of −1.5×10^5 worms. For initial culturing of worms in axenic media, three generations of worms were sequentially bleached (1.1% bleach/0.55 M NaOH) to eliminate any contaminating bacterial carryover from agar plates. In all dose-response experiments, worms were growth synchronized by treating the gravid hermaphrodite worms with bleach to dissolve adult worms. The eggs, resistant to bleach, were liberated from the carcasses and extensively washed with M9 buffer followed by overnight hatching in M9 buffer to synchronize growth. By harvesting at appropriate time intervals, synchronous larval stages and adult staged worms were collected for experimental manipulations. Identical numbers of synchronized L1 larvae were inoculated into media with different heme concentrations in 12- or 24-well culture plates. Worm growth was monitored each day and an aliquot was obtained for counting by microscopy usually at days 3, 6, and 9. The worms in each well were counted twice and each growth condition was analyzed in triplicate. P values for statistical significance were calculated utilizing a one-way ANOVA with Student-Newman-Keuls multiple comparison test using GraphPad Instat version 3.01. […]"}, "C. elegans mutant IH938": {"test_system": "C. elegans mutant IH938", "method": "as §1, §2"}, "C. elegans mutant IH731": {"test_system": "C. elegans mutant IH731", "method": "as §1, §2"}, "C. elegans mutant IH728": {"test_system": "C. elegans mutant IH728", "method": "as §1, §2"}, "[1]": {"conditions": "20 μM hemin, average in 24 well plates"}},
  "note": "Entries after “also recorded” stand apart in the source; their conditions may differ.",
  "data": [
    {"substance": "hemin chloride", "values": [
      {"measurement": "resistance of IH828", "setting": "C. elegans mutant IH828; 800 μM hemin", "result": "moderately resistant"},
      {"measurement": "growth of IH828", "setting": "C. elegans mutant IH828; 1000 μM hemin", "result": "no growth; also recorded: does not grow"},
      {"measurement": "Generation time (Days) 20 μM", "setting": "C. elegans mutant IH828; IH828, 20 μM hemin", "result": 3.5, "unit": "days"},
      {"measurement": "brood size 20 μM", "setting": "C. elegans mutant IH828; IH828, 20 μM hemin, average in 24 well plates", "result": 67},
      {"measurement": "Generation time (Days) 800 μM", "setting": "C. elegans mutant IH828; IH828, 800 μM hemin", "result": 4, "unit": "days"},
      {"measurement": "Generation time (Days) 20 μM", "setting": "C. elegans mutant IH938; 20 μM hemin", "result": 3.5, "unit": "days"},
      {"measurement": "brood size 20 μM", "setting": "C. elegans mutant IH938; [1]", "result": 72},
      {"measurement": "Generation time (Days) 800 μM", "setting": "C. elegans mutant IH938; 800 μM hemin", "result": 4, "unit": "days"},
      {"measurement": "Generation time (Days) 20 μM", "setting": "C. elegans mutant IH731; 20 μM hemin", "result": 3.5, "unit": "days"},
      {"measurement": "brood size 20 μM", "setting": "C. elegans mutant IH731; [1]", "result": 53},
      {"measurement": "Generation time (Days) 800 μM", "setting": "C. elegans mutant IH731; 800 μM hemin", "result": 4, "unit": "days"},
      {"measurement": "Generation time (Days) 20 μM", "setting": "C. elegans mutant IH728; 20 μM hemin", "result": 3.5, "unit": "days"},
      {"measurement": "brood size 20 μM", "setting": "C. elegans mutant IH728; [1]", "result": 53},
      {"measurement": "Generation time (Days) 800 μM", "setting": "C. elegans mutant IH728; 800 μM hemin", "result": 4, "unit": "days"}
    ]}
  ]
}
